Data as given in BindingDB's records for doi:10.1021/jm00121a004 (Merck Sharp & Dohme Research Laboratories, 1989).

Key:
[1] = Displacement of 125 I-gastrin from gastrin receptor of guinea pig gastric glands
[2] = Displacement of [125 I] CCK-8 from Cholecystokinin type B receptor of guinea pig cerebral cortex
[3] = Displacement of 125 I-gastrin from gastrin receptor of guinea pig gastric glands; remark: listed apart in the source

| Compound | IC50 [1] [nM] | IC50 [2] [nM] | IC50 [3] [nM] |
| --- | --- | --- | --- |
| CN1C(=O)[C@H](NC(=O)c2ccc(Cl)cc2)N=C(c2ccccc2F)c2ccccc21 | 7600 | 11000 | – |
| O=C(Nc1ccc(Cl)cc1)NC1N=C(c2ccccc2F)c2ccccc2NC1=O (centres undefined) | – | 300 | 640 |
| CN1C(=O)[C@@H](NC(=O)c2ccc(Cl)cc2)N=C(c2ccccc2F)c2ccccc21 | – | 2900 | 2500 |
| CN1C(=O)C(NC(=O)Nc2ccc(Cl)cc2)N=C(c2ccccc2)c2ccccc21 [(R)-1-(4-Chloro-phenyl)-3-(1-methyl-2-oxo-5-phenyl-2,3-dihydro-1H-benzo[e][1,4]diazepin-3-yl)-urea] | 22 | 23 | – |
| CCOC(=O)CN1C(=O)C(NC(=O)Nc2ccc(Cl)cc2)N=C(c2ccccc2F)c2ccccc21 (centres undefined) | 4.1 | – | – |
